In patent US7608683B2, “Stress proteins and peptides and methods of use thereof” (The Regents of the University of California, priority 2000, dated 2009):
Where a SMILES comes first, the peptide text is derived from it. The star is where a group is joined. Biotin = O=C1N[C@H]2[C@H](CS[C@H]2CCCCC(=O)*)N1

Legend:
patients with RA = conditions: 15 RA patients, 0.25, 2.5 or 25 mg daily orally for 6 months
Description: This study was a Phase I Immune Tolerization study conducted to determine whether in RA interplay between HLA and dnaJ-derived peptides there is maintained and/or stimulation of T cells which participate in autoimmune inflammation. The trial (number “n” of patients who completed=13) was designed in order to adhere to the American College of Rheumatology (ACR) 20 criteria for evaluation of efficacy.
Data from Phase I: The data shown in FIGS. 11A-E and 12A-E stem from a Phase I trial in which a total of 13 human RA patients were treated with three different doses of dnaJP1 qd po for 6 months. In vitro T cell responses to dnaJP1 were monitored at monthly intervals by measuring T cell proliferation and cytokine production in patients treated with dnaJP1 or control molecules.
We designed a pilot clinical trial to obtain information regarding both safety and immunological efficacy of the treatment. Enrollment criteria for this study included active RA as defined by the American College of Rheumatology, a disease duration <5 years and in vitro responsiveness to dnaJP1, defined as T cell proliferation and/or production of proinflammatory cytokines. DnaJP1 was given orally for 6 months. […]

[1] = test system: PBMC from patients with RA; conditions: 31 RA patient samples
Procedure: In FIG. 13A, Stimulation Index (SI) (y-axis). […] The dots represent individual patients. Lines indicate median values.
In FIG. 13B samples of 20 patients with recent onset RA and samples of 12 patients with OA were tested for T cell proliferation to the proteins and to the individual peptides.

[2] = test system: PBMCs from patients with RA; assay: T cell proliferation assay, PBMC of RA patients in the dnaJP1 trial; format: cell-based, human; conditions: negative control peptide
Description: FIG. 20A-L Treatment-induced modulation of T cell responses to dnaJP1. PBMC immune responses to dnaJP and controls from patients enrolled in the trial (n=15). T cell-proliferative response after in vitro culture with dnaJP1(a) or an irrelevant altered peptide ligand (b) in a standard proliferation assay. Phytohemagglutinin (a, ▴) was used as a positive control for T cell proliferation. […] Intracellular production of IL-2, IFN-γ, and TNF-α in response to dnaJP1 (c, e, and g) or PADRE peptide (d-f and h, respectively) at day 0 assessed at monthly intervals during treatment. Cytokine production is expressed as the percentage of CD3/cytokine double-positive cells measured by FACS in antigen-stimulated cultures, nonstimulated cultures (y axis). Error bars represent SD of the mean. Intracellular production of IL-4 (i) and IL-10 (k) after in vitro culture with dnaJP1 or with PADRE (j and l) at days 0, 56, and 168 of the treatment period.
T Cell Proliferation Assays. Peripheral blood mononuclear cells (PBMCs) were cultured in triplicate in […] u-shaped bottom wells (Costar, Cambridge, Mass.) at 5×10^5 cells per well for 120 h with or without antigen. […] Thymidine uptake was measured by using a liquid scintillation counter. Results are expressed as a mean cpm of triplicate cultures. The magnitude of the response is expressed as stimulation index: the mean cpm of stimulated/nonstimulated cultures. […]

[3] = test system: PBMC of subjects with JIA; assay: immunological recognition (T cell proliferation and/or cytokine production) in subjects with JIA; format: cell-based, human
Description: The right Y-axis depicts the stimulation index SI, and the left Y-axis depicts the production of cytokines INF-γ and IL-10 in pg/ml.
Immunological recognition of an antigen can be defined as antigen-specific T cell proliferation and/or antigen-specific cytokine production after culture with the specific antigens. In addition, in a very high percentage of subjects (ranging from 60 to 100%), T cell recognition of these pan DR binding hsp60 peptides could be detected (FIG. 9). This percentage can be considered extremely high if one considers both the failures of previous studies to determine T cell epitopes in JIA and the heterogenic HLA background in subjects with JIA.
If one compares the identified peptides with peptides that previously have been identified through the rat model of arthritis, the superiority of the method used here becomes evident. In previous studies in the model of adjuvant arthritis, it has been shown that mycobacterial hsp60 peptide containing amino acids 256-270 could induce protection in Adjuvant Arthritis. Following this finding a lot of effort has been put in attempting to identify the presence of 256-270 specific T cells in subjects with JIA. Based on the data provided by the computer algorithm, a new peptide was designed that was compared to the 256-270 aa peptide. […]

[4] = test system: PBMC from patients with JDM; assay: T cell proliferation (thymidine incorporation), PBMC of Juvenile Dermatomyositis patients; format: cell-based, human; conditions: 10 micrograms/ml, 96 hours; active disease vs remission
Description: FIG. 17 is a graph showing T cell proliferative responses of PBMC from patients with Juvenile Dermatomyositis (JDM) towards the hsp60 bacterial and human peptides of FIG. 5. Patients in remission (n=7); patients with active JDM (n=6).
This example identifies in another pediatric disease a peptide from the pool whose recognition triggers regulatory type T cells. Thirteen patients with a definite diagnosis of JDM according to standard disease criteria, were included in this study. […] All antigens were cultured at 10 micrograms/ml. After 96 hours thymidine incorporation was measured. The results are expressed in FIG. 17 as stimulation index (SI). SI is defined as counts per minute (cpm) thymidine incorporation in cells cultured with an antigen divided by cpm of cells cultured in culture medium without antigen. […] Bars represents the mean SI for PBMC from JDM patients with either active disease or incomplete clinical remission.

[5] = test system: PBMC of subjects with JIA; format: cell-based, human; conditions: 72 hours culture, ELISA

Molecule	recognition (T cell proliferation) by RA patients [1]	further results
C[C@H](NC(=O)[C@H](C)NC(=O)[C@H](Cc1c[nH]cn1)NC(=O)CNC(=O)[C@H](Cc1ccc(O)cc1)NC(=O)[C@H](CCC(N)=O)NC(=O)[C@H](CC(=O)O)NC(=O)[C@H](Cc1ccc(O)cc1)NC(=O)[C@H](C)NC(=O)[C@H](C)NC(=O)[C@H](CCCNC(=N)N)NC(=O)[C@H](CCCCN)NC(=O)[C@H](CCC(N)=O)NC(=O)CCCC[C@@H]1SC[C@@H]2NC(=O)N[C@@H]21)C(=O)N[C@@H](Cc1ccccc1)C(=O)N[C@@H](CCC(=O)O)C(N)=O [dnaJP1] (Biotin-QKRAAYDQYGHAAFE-NH2)		tolerability / side effects (patients with RA): well tolerated because no significant side effects were reported
AYVLLSEKKISSIQS [P4]	recognized	
DERAAYDQYGHAAFE (Biotin-DERAAYDQYGHAAFE-NH2; SMILES C[C@H](NC(=O)[C@H](C)NC(=O)[C@H](Cc1c[nH]cn1)NC(=O)CNC(=O)[C@H](Cc1ccc(O)cc1)NC(=O)[C@H](CCC(N)=O)NC(=O)[C@H](CC(=O)O)NC(=O)[C@H](Cc1ccc(O)cc1)NC(=O)[C@H](C)NC(=O)[C@H](C)NC(=O)[C@H](CCCNC(=N)N)NC(=O)[C@H](CCC(=O)O)NC(=O)[C@H](CC(=O)O)NC(=O)CCCC[C@@H]1SC[C@@H]2NC(=O)N[C@@H]21)C(=O)N[C@@H](Cc1ccccc1)C(=O)N[C@@H](CCC(=O)O)C(N)=O) [dnaJPv, altered peptide ligand, identical to dnaJP1 except for the two N-terminal amino acids; negative control]		proliferative T cell response in patients with RA [2]: does not induce a proliferative T cell response; proliferative T cell response in patients with RA ([2]; listed as dnaJpV): not stimulatory in patients
EAVLEDPYILLVSSK [P5]	recognized	
GEALSTLVLNRLKVG [P2]	recognized	
GEALSTLVVNKIRGT [P1]	recognized	T cell responses as defined by T cell proliferation and cytokine production [3]: did induce T cell responses
IAGLFLTTEAVVADK [P7]	recognized	
KCEFQDAYVLLSEKK [P6]	recognized	
PYILLVSSKVSTVKD [P3]	recognized	
VASLLTTAEVVVTEI (listed as Homo sapiens) [P8, residues 535-549 of human hsp60]	recognized	recognition (T cell proliferation, SI) in JDM patients [4]: recognized by the patients during disease remission
mycobacterial hsp60 256-270: negative control peptide, mycobacterial hsp60 amino acids 256-270, protective in rat adjuvant arthritis		antigen-specific cytokine production (IL-10, IFN-γ, TNF-α) [5]: did not induce any cytokine production
